# Reference: patent US20070249670A1, “Glycogen Phosphorylase Inhibitor Compounds and Pharmaceutical Compositions Thereof” (SMITHKLINE BEECHAM CORPORATION, priority 2004, published 2007)
# Target: T1, human liver glycogen phosphorylase a (HLGPa) (Homo sapiens, UniProt P06737)
# T1 construct: creating a full-length cDNA fused at the 5′ end to codons for methionine-glycine-alanine-histidine; 6xHis tag (leader Met-Gly-Ala-His6-Gly-Gly) (N); made in house; host or cells: E. coli (bacterial expression plasmid pTXK1007LTev)
# T1 sequence (P06737 2-847 limits assumed): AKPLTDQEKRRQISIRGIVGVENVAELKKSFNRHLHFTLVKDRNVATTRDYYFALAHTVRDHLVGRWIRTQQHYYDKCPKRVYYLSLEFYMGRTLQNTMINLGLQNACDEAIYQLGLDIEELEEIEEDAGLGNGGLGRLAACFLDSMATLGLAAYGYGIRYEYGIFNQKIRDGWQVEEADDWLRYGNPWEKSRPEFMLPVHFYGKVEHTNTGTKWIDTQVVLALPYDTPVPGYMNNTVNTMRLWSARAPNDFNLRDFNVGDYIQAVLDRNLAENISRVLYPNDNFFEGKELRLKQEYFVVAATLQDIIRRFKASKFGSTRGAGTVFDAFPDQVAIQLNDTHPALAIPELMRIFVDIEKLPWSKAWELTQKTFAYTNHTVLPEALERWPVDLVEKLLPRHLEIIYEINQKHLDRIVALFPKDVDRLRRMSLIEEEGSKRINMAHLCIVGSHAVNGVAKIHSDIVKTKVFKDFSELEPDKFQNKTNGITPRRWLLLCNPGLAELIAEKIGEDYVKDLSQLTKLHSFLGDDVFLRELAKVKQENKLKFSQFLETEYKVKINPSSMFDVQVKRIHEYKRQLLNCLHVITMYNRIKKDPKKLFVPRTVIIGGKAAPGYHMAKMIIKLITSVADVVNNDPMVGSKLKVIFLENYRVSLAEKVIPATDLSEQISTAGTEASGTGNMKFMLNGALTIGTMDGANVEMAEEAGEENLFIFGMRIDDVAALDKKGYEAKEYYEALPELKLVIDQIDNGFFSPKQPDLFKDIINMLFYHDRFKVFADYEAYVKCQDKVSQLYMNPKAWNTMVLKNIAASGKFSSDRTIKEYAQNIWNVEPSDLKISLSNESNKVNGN
# Test: Human liver glycogen phosphorylase a enzymatic activity assay (coupled, fluorescent resorufin readout, with and without 10 mM glucose)
# Format: biochemical
# Details: human liver glycogen phosphorylase a; table does not say whether with or without 10 mM glucose
row,IC50,Compound
1,14 nM,"COc1ccc(-c2ccc(C(=O)N[C@H](C(=O)O)C3CCCC3)c(NC(=O)Nc3c(C)cc(C)cc3C)c2)cc1 [Example 210, (2S)-Cyclopentyl({[4′-(methyloxy)-3-({[(2,4,6-trimethylphenyl)amino]carbonyl}amino)-4-biphenylyl]carbonyl}amino)ethanoic acid]"
2,290 nM,"Cc1cc(C)c(NC(=O)Nc2cc(F)ccc2C(=O)N[C@H](C(=O)O)C2CCCC2)c(C)c1 [Example 211, (2S)-Cyclopentyl({[4-fluoro-2-({[(2,4,6-trimethylphenyl)amino]carbonyl}amino)phenyl]carbonyl}amino)ethanoic acid]"
3,17 nM,"O=C(Nc1cc(-c2ccc(F)c(F)c2)ccc1C(=O)N[C@H](C(=O)O)C1CCCCC1)Nc1c(Cl)cc(OC(F)(F)F)cc1Cl [Example 212, (2S)-Cyclohexyl{[(3-{[({2,6-dichloro-4-[(trifluoromethyl)oxy]phenyl}amino)carbonyl]amino}-3′,4′-difluoro-4-biphenylyl)carbonyl]amino}ethanoic acid]"
4,24 nM,"Cc1cc(C)c(NC(=O)Nc2cc(-c3ccc(CN(C)C)cc3)ccc2C(=O)N[C@H](C(=O)O)C2CCCCC2)c(C)c1 [Example 213, (2S)-Cyclohexyl({[4′-[(dimethylamino)methyl]-3-({[(2,4,6-trimethylphenyl)amino]carbonyl}amino)-4-biphenylyl]carbonyl}amino)ethanoic acid]"
5,23 nM,"O=C(Nc1cc(-c2ccccc2)ccc1C(=O)N[C@H](C(=O)O)C1CCCCC1)Nc1c(Cl)cc(OC(F)(F)F)cc1Cl [Example 214, (2S)-Cyclohexyl{[(3-{[({2,6-dichloro-4-[(trifluoromethyl)oxy]phenyl}amino)carbonyl]amino}-4-biphenylyl)carbonyl]amino}ethanoic acid]"
6,9 nM,"COc1ccc(-c2ccc(C(=O)N[C@H](C(=O)O)C3CCCCC3)c(NC(=O)Nc3c(Cl)cc(OC(F)(F)F)cc3Cl)c2)cc1 [Example 215, (2S)-Cyclohexyl({[3-{[({2,6-dichloro-4-[(trifluoromethyl)oxy]phenyl}amino)carbonyl]amino}-4′-(methyloxy)-4-biphenylyl]carbonyl}amino)ethanoic acid]"
7,6 nM,"Cc1cc(C)c(NC(=O)Nc2cc(-c3ccc(CN4CCCC4)cc3)ccc2C(=O)N[C@H](C(=O)O)C2CCCCC2)c(C)c1 [Example 216, (2S)-Cyclohexyl({[4′-(1-pyrrolidinylmethyl)-3-({[(2,4,6-trimethylphenyl)amino]carbonyl}amino)-4-biphenylyl]carbonyl}amino)ethanoic acid]"
8,9 nM,"Cc1cc(C)c(NC(=O)Nc2cc(-c3ccc(CN4CCOCC4)cc3)ccc2C(=O)N[C@H](C(=O)O)C2CCCCC2)c(C)c1 [Example 217, (2S)-cyclohexyl({[4′-(4-morpholinylmethyl)-3-({[(2,4,6-trimethylphenyl)amino]carbonyl}amino)-4-biphenylyl]carbonyl}amino)ethanoic acid]"
9,7 nM,"CCOc1ccc(-c2ccc(C(=O)N[C@H](C(=O)O)C3CCCCC3)c(NC(=O)Nc3c(C)cc(C)cc3C)c2)cc1 [Example 218, (2S)-Cyclohexyl({[4′-(ethyloxy)-3-({[(2,4,6-trimethylphenyl)amino]carbonyl}amino)-4-biphenylyl]carbonyl}amino)ethanoic acid]"
10,15 nM,"CCCC[C@H](NC(=O)c1ccc(-c2ccc(OC)cc2)cc1NC(=O)Nc1c(C)cc(C)cc1C)C(=O)O [Example 219, N-{[4′-(methyloxy)-3-({[(2,4,6-trimethylphenyl)amino]carbonyl}amino)-4-biphenylyl]carbonyl}-L-norleucine]"
11,1960 nM,"Cc1cc(C)c(NC(=O)Nc2cc(S(C)(=O)=O)ccc2C(=O)N[C@H](C(=O)O)C2CCCCC2)c(C)c1 [Example 220, (2S)-Cyclohexyl({[4-(methylsulfonyl)-2-({[(2,4,6-trimethylphenyl)amino]carbonyl}amino)phenyl]carbonyl}amino)ethanoic acid]"
12,300 nM,"Cc1cc(C)c(NC(=O)Nc2cc(F)ccc2C(=O)NC2(C(=O)O)CCCCCC2)c(C)c1 [Example 221, 1-({[4-Fluoro-2-({[(2,4,6-trimethylphenyl)amino]carbonyl}amino)phenyl]carbonyl}amino)cycloheptane-carboxylic acid]"
13,24 nM,"COc1ccc(-c2ccc(C(=O)NC3(C(=O)O)CCCCCC3)c(NC(=O)Nc3c(C)cc(C)cc3C)c2)cc1 [Example 222, 1-({[4′-(methyloxy)-3-({[(2,4,6-trimethylphenyl)amino]carbonyl}amino)-4-biphenylyl]carbonyl}amino)cycloheptanecarboxylic acid]"
14,9 nM,"Cc1cc(C)c(NC(=O)Nc2cc(-c3ccc(F)cc3)ccc2C(=O)N[C@H](C(=O)O)C2CCCCC2)c(C)c1 [Example 223, (2S)-Cyclohexyl({[4′-fluoro-3-({[(2,4,6-trimethylphenyl)amino]carbonyl}amino)-4-biphenylyl]carbonyl}amino)ethanoic acid]"
15,3 nM,"Cc1cc(C)c(NC(=O)Nc2cc(-c3ccc4c(c3)OCO4)ccc2C(=O)N[C@H](C(=O)O)C2CCCCC2)c(C)c1 [Example 224, (2S)-({[4-(1,3-Benzodioxol-5-yl)-2-({[(2,4,6-trimethylphenyl)amino]carbonyl}amino)phenyl]carbonyl}amino)(cyclohexyl)-ethanoic acid]"
16,2 nM,"COc1ccc(-c2ccc(C(=O)N[C@H](C(=O)O)[C@@H](C)OC(C)(C)C)c(NC(=O)Nc3c(C)cc(C)cc3C)c2)cc1 [Example 225, O-(1,1-Dimethylethyl)-N-{[4′-(methyloxy)-3-({[(2,4,6-trimethylphenyl)amino]carbonyl}amino)-4-biphenylyl]carbonyl}-L-threonine]"
17,530 nM,"Cc1cc(C)c(NC(=O)Nc2cc(F)ccc2C(=O)N[C@H](C(=O)O)[C@@H](C)OC(C)(C)C)c(C)c1 [Example 226, O-(1,1-Dimethylethyl)-N-{[4-fluoro-2-({[(2,4,6-trimethylphenyl)amino]carbonyl}amino)phenyl]carbonyl}-L-threonine]"
18,1 nM,"Cc1cc(C)c(NC(=O)Nc2cc(-c3ccc(F)c(F)c3)ccc2C(=O)NC2(C(=O)O)CCCCCCC2)c(C)c1 [Example 227, 1-({[3′,4′-Difluoro-3-({[(2,4,6-trimethylphenyl)amino]carbonyl}amino)-4-biphenylyl]carbonyl}amino)cyclooctanecarboxylic acid]"
19,4 nM,"Cc1cc(C)c(NC(=O)Nc2cc(-c3ccc4c(c3)OCCO4)ccc2C(=O)N[C@H](C(=O)O)C2CCCCC2)c(C)c1 [Example 228, (2S)-Cyclohexyl({[4-(2,3-dihydro-1,4-benzodioxin-6-yl)-2-({[(2,4,6-trimethylphenyl)amino]carbonyl}amino)phenyl]carbonyl}amino)ethanoic acid]"
20,3 nM,"COc1ccc(-c2ccc(C(=O)N[C@H](C(=O)O)C3CCCCC3)c(NC(=O)Nc3c(C)cc(C)cc3C)c2)cc1OC [Example 229, (2S)-({[3′,4′-Bis(methyloxy)-3-({[(2,4,6-trimethylphenyl)amino]carbonyl}amino)-4-biphenylyl]carbonyl}amino)(cyclohexyl)ethanoic acid]"
21,58 nM,"Cc1cc(C)c(NC(=O)Nc2cc(F)c(F)cc2C(=O)N[C@H](C(=O)O)C2CCCCC2)c(C)c1 [Example 230, (2S)-Cyclohexyl({[4,5-difluoro-2-({[(2,4,6-trimethylphenyl)amino]carbonyl}amino)phenyl]carbonyl}amino)ethanoic acid]"
22,1 nM,"COc1ccc(-c2ccc(C(=O)NC3(C(=O)O)CCCCCCC3)c(NC(=O)Nc3c(C)cc(C)cc3C)c2)cc1 [Example 231, 1-({[4′-(Methyloxy)-3-({[(2,4,6-trimethylphenyl)amino]carbonyl}amino)-4-biphenylyl]carbonyl}amino)cyclooctanecarboxylic acid]"
23,7 nM,"COc1ccc(-c2ccc(C(=O)N[C@H](C(=O)O)[C@@H](C)OC(C)(C)C)c(NC(=O)Nc3c(Cl)cc(OC(F)(F)F)cc3Cl)c2)cc1 [Example 232, N-{[3-{[({2,6-Dichloro-4-[(trifluoromethyl)oxy]phenyl}amino)carbonyl]amino}-4′-(methyloxy)-4-biphenylyl]carbonyl}-O-(1,1-dimethylethyl)-L-threonine]"
24,23 nM,"Cc1cc(C)c(NC(=O)Nc2cc(-c3cccc(F)c3)ccc2C(=O)N[C@H](C(=O)O)[C@@H](C)OC(C)(C)C)c(C)c1 [Example 233, O-(1,1-Dimethylethyl)-N-{[3′-fluoro-3-({[(2,4,6-trimethylphenyl)amino]carbonyl}amino)-4-biphenylyl]carbonyl}-L-threonine]"
25,24 nM,"Cc1cc(C)c(NC(=O)Nc2cc(-c3cccc(F)c3)ccc2C(=O)N[C@H](C(=O)O)C2CCCCC2)c(C)c1 [Example 234, (2S)-Cyclohexyl({[3′-fluoro-3-({[(2,4,6-trimethylphenyl)amino]carbonyl}amino)-4-biphenylyl]carbonyl}amino)ethanoic acid]"
